Reference: patent US10065963B2 (Incyte Corporation, priority 2015, dated 2018)
Structures can show the parent of a compound that is named as a salt.

What was measured:
[1] = target: PI3Kδ (p110δ/p85α) Recombinant Human Protein (Homo sapiens (Human), UniProt O00329); test: PI3Kδ scintillation proximity assay; assay type: biochemical; conditions: 2 μM ATP, 20 μM PIP2
[2] = target: PI3Kγ (p110γ) Recombinant Human Protein (Homo sapiens (Human), UniProt P48736); test: PI3K-γ scintillation proximity assay; assay type: biochemical; conditions: 2 μM ATP, 20 μM PIP2
PI3Kγ (p110γ) Recombinant Human Protein, sequence (P48736 whole entry): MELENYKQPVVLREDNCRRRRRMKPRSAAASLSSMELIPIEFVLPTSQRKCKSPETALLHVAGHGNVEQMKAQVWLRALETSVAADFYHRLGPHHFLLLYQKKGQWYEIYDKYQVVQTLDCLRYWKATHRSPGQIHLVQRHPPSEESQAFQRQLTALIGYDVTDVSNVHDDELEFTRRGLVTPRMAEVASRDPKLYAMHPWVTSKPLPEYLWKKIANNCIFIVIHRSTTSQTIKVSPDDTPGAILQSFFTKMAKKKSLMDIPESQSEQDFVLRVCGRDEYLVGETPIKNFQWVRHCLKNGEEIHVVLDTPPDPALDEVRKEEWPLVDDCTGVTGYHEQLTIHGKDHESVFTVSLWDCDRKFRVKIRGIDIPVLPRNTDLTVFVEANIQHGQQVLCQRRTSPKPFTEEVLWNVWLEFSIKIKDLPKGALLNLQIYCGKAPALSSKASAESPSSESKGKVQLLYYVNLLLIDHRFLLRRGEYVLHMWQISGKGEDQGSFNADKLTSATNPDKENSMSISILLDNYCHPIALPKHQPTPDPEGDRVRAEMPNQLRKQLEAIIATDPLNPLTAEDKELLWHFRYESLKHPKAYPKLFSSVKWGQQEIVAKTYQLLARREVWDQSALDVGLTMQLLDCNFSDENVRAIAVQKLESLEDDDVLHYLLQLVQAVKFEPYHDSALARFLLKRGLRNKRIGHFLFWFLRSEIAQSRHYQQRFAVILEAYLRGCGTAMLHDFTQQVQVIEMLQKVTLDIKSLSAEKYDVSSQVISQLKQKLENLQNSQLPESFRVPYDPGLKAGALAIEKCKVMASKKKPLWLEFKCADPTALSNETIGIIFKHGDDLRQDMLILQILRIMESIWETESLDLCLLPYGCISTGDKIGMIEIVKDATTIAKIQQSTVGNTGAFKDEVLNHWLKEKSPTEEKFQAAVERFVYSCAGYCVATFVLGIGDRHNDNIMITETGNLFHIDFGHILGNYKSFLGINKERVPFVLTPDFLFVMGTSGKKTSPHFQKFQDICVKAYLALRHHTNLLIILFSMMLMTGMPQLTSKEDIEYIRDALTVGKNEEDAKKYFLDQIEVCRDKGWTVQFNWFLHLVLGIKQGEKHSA

[3] = system: Phosphorylated Ribosomal Protein S6 (RPS6) in THP-1 cells; test: THP-1 RPS6 ELISA assay; assay type: cell-based, human; conditions: Homo sapiens, THP-1, THP-1 cells, 10 nM MCP-1; read-out: PI3Kγ_THP1_RPS6_ELISA IC50

PI3Kδ (p110δ/p85α) Recombinant Human Protein, sequence (O00329 whole entry): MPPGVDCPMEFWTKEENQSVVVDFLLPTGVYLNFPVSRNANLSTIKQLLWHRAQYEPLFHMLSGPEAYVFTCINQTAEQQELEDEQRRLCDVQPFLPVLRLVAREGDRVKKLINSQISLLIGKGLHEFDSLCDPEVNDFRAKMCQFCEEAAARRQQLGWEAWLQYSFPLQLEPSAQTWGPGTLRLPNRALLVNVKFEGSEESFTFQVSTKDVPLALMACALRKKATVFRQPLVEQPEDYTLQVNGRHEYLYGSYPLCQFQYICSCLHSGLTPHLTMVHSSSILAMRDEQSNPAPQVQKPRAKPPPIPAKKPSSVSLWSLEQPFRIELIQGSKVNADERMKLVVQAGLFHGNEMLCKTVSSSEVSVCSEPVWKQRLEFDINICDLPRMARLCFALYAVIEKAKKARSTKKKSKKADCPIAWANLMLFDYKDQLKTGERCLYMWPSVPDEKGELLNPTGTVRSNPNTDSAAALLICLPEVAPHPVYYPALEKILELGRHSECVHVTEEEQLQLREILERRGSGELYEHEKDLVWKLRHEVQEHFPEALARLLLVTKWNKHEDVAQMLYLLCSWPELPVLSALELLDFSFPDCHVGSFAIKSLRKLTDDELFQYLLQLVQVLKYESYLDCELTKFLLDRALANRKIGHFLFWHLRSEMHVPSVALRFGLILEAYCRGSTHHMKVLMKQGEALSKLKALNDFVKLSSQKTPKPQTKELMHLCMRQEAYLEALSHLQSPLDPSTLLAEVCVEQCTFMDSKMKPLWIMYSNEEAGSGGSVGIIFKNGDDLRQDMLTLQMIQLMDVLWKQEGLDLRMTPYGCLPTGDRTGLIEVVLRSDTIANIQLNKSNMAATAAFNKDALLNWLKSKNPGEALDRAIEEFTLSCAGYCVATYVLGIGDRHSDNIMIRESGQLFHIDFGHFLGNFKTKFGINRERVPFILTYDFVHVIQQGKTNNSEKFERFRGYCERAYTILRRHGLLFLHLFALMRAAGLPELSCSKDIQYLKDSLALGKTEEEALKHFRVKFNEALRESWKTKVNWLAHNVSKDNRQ
PI3Kδ (p110δ/p85α) Recombinant Human Protein, sequence (P27986 whole entry partner): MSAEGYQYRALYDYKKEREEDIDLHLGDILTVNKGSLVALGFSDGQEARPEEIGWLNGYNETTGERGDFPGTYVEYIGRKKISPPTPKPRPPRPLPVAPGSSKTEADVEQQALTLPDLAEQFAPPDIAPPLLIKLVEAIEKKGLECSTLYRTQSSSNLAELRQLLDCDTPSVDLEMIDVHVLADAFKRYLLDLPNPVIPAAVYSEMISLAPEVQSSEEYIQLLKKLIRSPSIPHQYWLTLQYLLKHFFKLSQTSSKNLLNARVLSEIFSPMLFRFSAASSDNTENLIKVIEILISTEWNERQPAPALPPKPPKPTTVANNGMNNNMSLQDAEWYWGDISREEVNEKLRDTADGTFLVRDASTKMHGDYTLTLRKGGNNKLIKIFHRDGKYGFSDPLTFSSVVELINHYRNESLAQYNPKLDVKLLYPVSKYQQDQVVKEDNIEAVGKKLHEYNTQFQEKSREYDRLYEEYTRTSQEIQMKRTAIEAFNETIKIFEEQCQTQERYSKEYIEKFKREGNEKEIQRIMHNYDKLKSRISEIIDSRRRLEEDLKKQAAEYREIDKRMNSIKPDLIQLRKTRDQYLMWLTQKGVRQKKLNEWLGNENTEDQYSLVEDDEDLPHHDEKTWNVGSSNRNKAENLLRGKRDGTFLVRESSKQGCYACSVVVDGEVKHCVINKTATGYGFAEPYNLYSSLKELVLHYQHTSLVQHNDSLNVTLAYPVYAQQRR

| Compound | IC50 [1] [nM] | IC50 [2] [nM] | IC50 [3] [nM] |
| --- | --- | --- | --- |
| CC(NC(=O)c1c(N)nn2cccnc12)c1cc(Cl)c2ccnn2c1-c1cccnc1 (stereo not drawn) [Example 59, 2-Amino-N-(1-(4-chloro-7-(pyridin-3-yl)pyrazolo[1,5-a]pyridin-6-yl)ethyl)pyrazolo[1,5-a]pyrimidine-3-carboxamide trifluoroacetate] | < 100 | < 100 | < 500 |
| CC(NC(=O)c1c(N)nn2cccnc12)c1cc(Cl)c2c(C#N)cnn2c1N1CCS(=O)(=O)CC1 (stereo not drawn) [Example 60, 2-Amino-N-(1-(4-chloro-3-cyano-7-(1,1-dioxidothiomorpholino)pyrazolo[1,5-a]pyridin-6-yl)ethyl)pyrazolo[1,5-a]pyrimidine-3-carboxamide trifluoroacetate] | < 500 | < 100 | < 500 |
| CC(NC(=O)c1c(N)nn2cccnc12)c1cc(Cl)c2cncn2c1C1CCCC1 (stereo not drawn) [Example 62, 2-amino-N-(1-(8-chloro-5-cyclopentylimidazo[1,5-a]pyridin-6-yl)ethyl)pyrazolo[1,5-a]pyrimidine-3-carboxamide trifluoroacetate] | < 500 | < 100 | < 500 |
| CC(NC(=O)c1c(N)nn2cccnc12)c1cc(Cl)c2cncn2c1N1CCCC(F)(F)C1 (stereo not drawn) [Example 67, 2-Amino-N-{1-[8-chloro-5-(3,3-difluoropiperidin-1-yl)imidazo[1,5-a]pyridin-6-yl]ethyl}pyrazolo[1,5-a]pyrimidine-3-carboxamide bis trifluroacetate] | < 100 | < 100 | < 500 |
| CC(NC(=O)c1c(N)nn2cccnc12)c1cc(Cl)c2cncn2c1N1CCC(F)(F)C1 (stereo not drawn) [Example 68, 2-Amino-N-{1-[8-chloro-5-(3,3-difluoropyrrolidin-1-yl)imidazo[1,5-a]pyridin-6-yl]ethyl}pyrazolo[1,5-a]pyrimidine-3-carboxamide bistrifluoroacetate] | < 100 | < 100 | < 500 |
| CC1CCN(c2c(C(C)NC(=O)c3c(N)nn4cccnc34)cc(Cl)c3cncn23)CC1 (stereo not drawn) [Example 69, 2-Amino-N-{1-[8-chloro-5-(4-methylpiperidin-1-yl)imidazo[1,5-a]pyridin-6-yl]ethyl}pyrazolo[1,5-a]pyrimidine-3-carboxamide bistrifluoroacetate] | < 500 | < 100 | < 1000 |
| CC(NC(=O)c1c(N)nn2cccnc12)c1cc(Cl)c2cncn2c1N1CCC[C@H]1C (stereo partly drawn) [Example 71A, 2-Amino-N-(1-{8-chloro-5-[(2R)-2-methylpyrrolidin-1-yl]imidazo[1,5-a]pyridin-6-yl}ethyl)pyrazolo[1,5-a]pyrimidine-3-carboxamide bistrifluoroacetate] | < 500 | < 100 | < 1000 |
| CC(NC(=O)c1c(N)nn2cccnc12)c1cc(Cl)c2cncn2c1N1CCC[C@@H]1C (stereo partly drawn) [Example 71B, 2-Amino-N-(1-{8-chloro-5-[(2S)-2-methylpyrrolidin-1-yl]imidazo[1,5-a]pyridin-6-yl}ethyl)pyrazolo[1,5-a]pyrimidine-3-carboxamide bistrifluoroacetate] | < 100 | < 100 | < 500 |
| CC(NC(=O)c1c(N)nn2cccnc12)c1cc(Cl)c2cncn2c1N1CCCC[C@H]1C (stereo partly drawn) [Example 72A, 2-Amino-N-{1-[8-chloro-5-[(2R)-2-methylpiperidin-1-yl)imidazo[1,5-a]pyridin-6-yl]ethyl}pyrazolo[1,5-a]pyrimidine-3-carboxamide bistrifluoroacetate] | < 100 | < 100 | < 500 |
| CC(NC(=O)c1c(N)nn2cccnc12)c1cc(Cl)c2cncn2c1N1CCC(C)(C)C1 (stereo not drawn) [Example 74, 2-Amino-N-{1-[8-chloro-5-(3,3-dimethylpyrrolidin-1-yl)imidazo[1,5-a]pyridin-6-yl]ethyl}pyrazolo[1,5-a]pyrimidine-3-carboxamide bistrifluoroacetate] | < 100 | < 100 | < 500 |

Second part, the compound after the results:

| IC50 [1] [nM] | IC50 [2] [nM] | IC50 [3] [nM] | Compound |
| --- | --- | --- | --- |
| < 100 | < 100 | < 500 | C[C@H](NC(=O)c1c(N)nn2cccnc12)c1cc(Cl)c2ccnn2c1N1CCS(=O)(=O)CC1 [Example 57, (S)-2-Amino-N-(1-(4-chloro-7-(1,1-dioxidothiomorpholino)pyrazolo[1,5-a]pyridin-6-yl)ethyl)pyrazolo[1,5-a]pyrimidine-3-carboxamide trifluoroacetate] |
| < 100 | < 100 | < 500 | C[C@H](NC(=O)c1c(N)nn2cccnc12)c1cc(Cl)c2c(F)cnn2c1N1CCS(=O)(=O)CC1 [Example 58, (S)-2-Amino-N-(1-(4-chloro-7-(1,1-dioxidothiomorpholino)-3-fluoropyrazolo[1,5-a]pyridin-6-yl)ethyl)pyrazolo[1,5-a]pyrimidine-3-carboxamide trifluoroacetate] |
| < 2000 | < 100 | < 1000 | CC(NC(=O)c1c(N)nn2cccnc12)c1cc(Cl)c2c(C#N)cnn2c1N1CCC[C@H](O)C1 (stereo partly drawn) [Example 61, 2-Amino-N-(1-(4-chloro-3-cyano-7-((S)-3-hydroxypiperidin-1-yl)pyrazolo[1,5-a]pyridin-6-yl)ethyl)pyrazolo[1,5-a]pyrimidine-3-carboxamide trifluoroacetate] |
| < 500 | < 500 | < 500 | CC(NC(=O)c1c(N)nn2cccnc12)c1cc(Cl)c2cnnn2c1-c1ccccc1 (stereo not drawn) [Example 63, 2-Amino-N-(1-(4-chloro-7-phenyl-[1,2,3]triazolo[1,5-a]pyridin-6-yl)ethyl)pyrazolo[1,5-a]pyrimidine-3-carboxamide trifluoroacetate] |
| < 100 | < 100 | < 500 | CC(NC(=O)c1c(N)nn2cccnc12)c1cc(Cl)c2cncn2c1N1CCC(F)(F)CC1 (stereo not drawn) [Example 65, 2-Amino-N-{1-[8-chloro-5-(4,4-difluoropiperidin-1-yl)imidazo[1,5-a]pyridin-6-yl]ethyl}pyrazolo[1,5-a]pyrimidine-3-carboxamide bistrifluoroacetate] |
| < 100 | < 100 | < 500 | CC(NC(=O)c1c(N)nn2cccnc12)c1cc(Cl)c2cncn2c1N1CCC(F)CC1 (stereo not drawn) [Example 66, 2-Amino-N-{1-[8-chloro-5-(4-fluoropiperidin-1-yl)imidazo[1,5-a]pyridin-6-yl]ethyl}pyrazolo[1,5-a]pyrimidine-3-carboxamide bistrifluoroacetate] |
| < 100 | < 100 | < 500 | CC(NC(=O)c1c(N)nn2cccnc12)c1cc(Cl)c2cncn2c1N1CCCC1(C)C (stereo not drawn) [Example 70, 2-Amino-N-{1-[8-chloro-5-(2,2-dimethylpyrrolidin-1-yl)imidazo[1,5-a]pyridin-6-yl]ethyl}pyrazolo[1,5-a]pyrimidine-3-carboxamide bistrifluoroacetate] |
| < 100 | < 100 | < 500 | CC(NC(=O)c1c(N)nn2cccnc12)c1cc(Cl)c2cncn2c1N1CCCC[C@@H]1C (stereo partly drawn) [Example 72B, 2-Amino-N-{1-[8-chloro-5-[(2S)-2-methylpiperidin-1-yl)imidazo[1,5-a]pyridin-6-yl]ethyl}pyrazolo[1,5-a]pyrimidine-3-carboxamide bistrifluoroacetate] |
